Literature values in patent publication US20050244357A1, “Oil-containing emulsifiable formulations containing active agents” (priority 2004, published 2005).

Tested on: thrips
Conditions: cotton, applied alone

CNC(=O)CSP(=S)(OC)OC [Dimethoate]
control of thrips: good control
